Measurements taken from patent US4206215A, “Antimicrobial bis-[4-(substituted-amino)-1-pyridinium]alkanes” (Sterling Drug Inc., priority 1977, dated 1980).
Read-outs that look alike come from different tables or passages of the source.

Assays:
S. Aureus Smith = assay: In vitro antibacterial activity, MIC (modified Autotiter method); format: cell-based, Staphylococcus aureus; conditions: 18-20 hours at 37° C.; for MIC: Staphylococcus aureus, 20 h, read-out: MIC S. Aureus Smith
Procedure, shortened: (§1)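 Modified Goss Autotiter dilution. 1,000 mcg./ml. solution → twofold series in sterile H2O → inoculated 2x glucose semisynthetic medium added. Tested finals 500–0.06 mcg./ml.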

E. coli 100/B22 = assay: as above; format: cell-based, Escherichia coli; conditions: for MIC: Escherichia coli, 100/B22, 20 h, read-out: MIC E. coli 100/B22, 18-20 hours at 37° C.
Procedure, shortened: as §1

E. coli AB1932-1 = assay: as above; format: cell-based, Escherichia coli; conditions: 18-20 hours at 37° C.; for MIC: Escherichia coli, AB19321, 20 h, read-out: MIC E. coli AB1932-1
Procedure, shortened: as §1

E. coli Vogel = assay: as above; format: cell-based, Escherichia coli; conditions: 18-20 hours at 37° C.; for MIC: Escherichia coli, 20 h, read-out: MIC E. coli Vogel
Procedure, shortened: as §1

K. pneum. 39645 = assay: as above; format: cell-based, Klebsiella pneumoniae; conditions: 18-20 hours at 37° C.; for MIC: Klebsiella pneumoniae, 20 h, read-out: MIC K. pneum. 39645
Procedure, shortened: as §1

P. mirab. MGH-1 = assay: as above; format: cell-based, Proteus mirabilis; conditions: 18-20 hours at 37° C.; for MIC: Proteus mirabilis, 20 h, read-out: MIC P. mirab. MGH-1
Procedure, shortened: as §1

Ps. aerug. MGH-2 = assay: as above; format: cell-based, Pseudomonas aeruginosa; conditions: 18-20 hours at 37° C.; for MIC: Pseudomonas aeruginosa, 20 h, read-out: MIC Ps. aerug. MGH-2
Procedure, shortened: as §1

S. pyogen. C203 = assay: as above; format: cell-based, Streptococcus pyogenes; conditions: 18-20 hours at 37° C.; for MIC: Streptococcus pyogenes, 20 h, read-out: MIC S. pyogen. C203
Procedure, shortened: as §1

A. niger 16404 = assay: In vitro antifungal activity, MIC (modified Autotiter method); format: cell-based, Aspergillus niger; conditions: 18-20 hours at 37° C.; for MIC: Aspergillus niger, 16404, 20 h, read-out: MIC A. niger 16404
Procedure, shortened: as §1

C. albicans 10231 = assay: as above; format: cell-based, Candida albicans; conditions: 18-20 hours at 37° C.; for MIC: Candida albicans, 10231, 20 h, read-out: MIC C. albicans 10231
Procedure, shortened: as §1

C. albicans Wisc. = assay: as above; format: cell-based, Candida albicans; conditions: 18-20 hours at 37° C.; for MIC: Candida albicans, 20 h, read-out: MIC C. albicans Wisc.
Procedure, shortened: as §1

T. menta. 9129 = assay: as above; format: cell-based, Trichophyton mentagrophytes; conditions: 18-20 hours at 37° C.; for MIC: Trichophyton mentagrophytes, 20 h, read-out: MIC T. menta. 9129
Procedure, shortened: as §1

S. Aureus ATCC 6538 = assay: Effect of serum on bacteriostatic activity (serial tube dilution test); format: cell-based, Staphyloccocus aureus; conditions: for MIC: Staphylococcus aureus, ATCC6538
Procedure: (§2) Antibacterial effectiveness in the presence of serum was determined for representative examples by the standard serial tube dilution test wherein paired comparisons of minimum inhibitory concentrations (MIC) were determined in the absence and in the presence of heat inactivated (30 min. at 56° C.) horse serum (40%) in the test medium. The results are expressed as the fold increase in MIC (mcg./ml.) versus Staphyloccocus aureus and Escherichia coli caused by the presence of serum and are presented in Table B hereinbelow.

E. Coli ATCC 8739 = assay: as above; format: cell-based, Escherichia coli; conditions: for MIC: Escherichia coli, ATCC8739
Procedure: as §2

[1] = test system: Streptococcus mutans OMZ-61; assay: Dental plaque-preventive effectiveness in the presence of sterile human saliva (50%); format: cell-based; conditions: 50% sterile human saliva
Procedure: The dental plaque preventive activity of certain of the compounds of the present invention was determined by measuring the ability of these compounds to inhibit the production of dental plaque by Streptococcus mutans OMZ-61 as follows:
A culture medium for the plaque-producing Streptococcus mutans OMZ-61 containing 1.5 g. of BBL beef extract, 5 g. of sodium chloride, 10 g. of dehydrated trypticase, 5 g. of sucrose and sufficient distilled water to give a total volume of 1000 ml. is adjusted to pH 7.0 and sterilized by membrane filtration. The medium is dispensed aseptically in 10-ml. aliquots into 150×16 mm. test tubes and stored at refrigeration temperature until used.
Two concentrations of the compound to be tested are prepared by dissolving 100 mg. of the compound in 1 ml. of distilled water with the aid of sufficient 0.1 N sodium hydroxide, 10% dimethylsulfoxide or 10% N,N-dimethylformamide and diluting the resulting solution to 10 ml. with distilled water. This 1.0% solution and a 1:10 dilution in distilled water (0.1%) are sterilized by membrane filtration before use.
A sterile piece of plaque-free natural tooth enamel or synthetic hydroxylapatite is suspended in each concentration of compound for two 1-minute periods, each followed by a 1-minute air drying period. Each piece is then suspended and agitated for 5 minutes in individual test tubes containing sterile distilled water (rinse). They are then suspended in 10 ml. of liquid beef extract medium to which has been added 0.3 ml. of a 24-hr. anaerobic culture of Streptococcus mutans. The tubes containing the "treated" hydroxylapatite and the Streptococcus mutans are then incubated anaerobically at 37° C. for 24 hours. The same process of two 1-minute soaks in the solution of compound, each followed by 1 minute of air drying and the final 5-minute rinse is repeated before once again suspending the hydroxylapatite in a fresh tube containing 10 ml. of beef extract medium and 0.3 ml. of inoculum. At the end of the second 24-hour period, each piece of hydroxylapatite is rinsed for 1 minute in 3 successive tubes of distilled water. These are then suspended for 1 minute in a solution of F, D & C Red No. 3 dye. This staining procedure is used in order to identify more easily the development of plaque after the 48-hour period of exposure to the plaque-producing organism. The staining period is followed by another 10-second rinse to remove excess dye. Any plaque formation stains a brilliant pink. […] Active compounds are tested at successively lower doses in order to determine the minimum effective concentration. On some occasions, the interference of plaque production is caused by the inhibition of growth of the organism in the culture medium because the compound has been leached from the hydroxylapatite to produce an antibacterial level in the medium. When this occurs, the compound is tested at lower concentrations until the growth of the organism in the surrounding medium is equal to that in the nonmedicated control culture. Plaque may or may not be formed at these lower concentrations.
Dental plaque-preventive effectiveness in the presence of sterile human saliva (50%) was determined for representative examples.

[2] = test system: Herpes simplex type 2 virus; assay: Virucidal activity in vitro (plaque inhibition test); format: cell-based; conditions: 2 mg. of test compound on growth medium
Procedure: Virucidal activity of representative examples against Herpes simplex type 2 virus was determined in vitro employing a procedure similar to the plaque inhibition test for detection of specific inhibitors of DNA-containing viruses published by E. C. Herrmann, Jr., Proc. Soc. Exp. Biol. Med. 107, 142 (1961) wherein 2 mg. of the test compound was placed on the surface of the growth medium.

[3] = Acute oral toxicity (ALD50); format: in vivo; conditions: mouse, in vivo, po, mice, suspension in 1% gum tragacanth; read-out: 7-Day ALD50
Procedure: (§3) The acute oral toxicity (ALD50) of several representative examples was determined as follows: Groups of 3 young adult male Swiss-Webster strain albino mice were fasted approximately 4 hours before medication and then medicated once orally by stomach tube.

[4] = test system: young adult male Swiss-Webster strain albino mice; assay: Acute oral toxicity (ALD50); format: in vivo; conditions: suspension in 1% G.T.
Procedure: as §3

[5] = 25 mg/kg (so in the source) oral

CCCCCCCCNc1cc[n+](CCCCCCCCCC[n+]2ccc(NCCCCCCCC)cc2)cc1 [Example 9D, 1,10-bis-[4-(octylamino)-1-pyridinium]decane dibromide]
MIC S. Aureus Smith (S. Aureus Smith): 0.5 µg/mL
MIC E. coli 100/B22 (E. coli 100/B22; 18-20 hours at 37° C.): 1.95 µg/mL
MIC E. coli AB1932-1 (E. coli AB1932-1): 1.0 µg/mL
MIC E. coli Vogel (E. coli Vogel): 1.95 µg/mL
MIC K. pneum. 39645 (K. pneum. 39645): 3.9 µg/mL
MIC P. mirab. MGH-1 (P. mirab. MGH-1): 3.9 µg/mL
MIC Ps. aerug. MGH-2 (Ps. aerug. MGH-2): 3.9 µg/mL
MIC S. pyogen. C203 (S. pyogen. C203): 0.5 µg/mL
MIC A. niger 16404 (A. niger 16404): 1.95 µg/mL
MIC C. albicans 10231 (C. albicans 10231): 1.0 µg/mL
MIC C. albicans Wisc. (C. albicans Wisc.): 1.0 µg/mL
MIC T. menta. 9129 (T. menta. 9129): 1.0 µg/mL
Fold Increase in MIC S. Aureus ATCC 6538 (S. Aureus ATCC 6538; 40% vs 0% horse serum): 16 fold
MIC (S. Aureus ATCC 6538; 40% heat inactivated horse serum, read-out: MIC S. Aureus ATCC 6538 40% Serum): 7.8 µg/mL
MIC (S. Aureus ATCC 6538; read-out: MIC S. Aureus ATCC 6538 0% Serum): 0.5 µg/mL
Fold Increase in MIC E. Coli ATCC 8739 (E. Coli ATCC 8739; 40% vs 0% horse serum): 64 fold
MIC (E. Coli ATCC 8739; 40% heat inactivated horse serum, read-out: MIC E. Coli ATCC 8739 40% Serum): 62.5 µg/mL
MIC (E. Coli ATCC 8739; read-out: MIC E. Coli ATCC 8739 0% Serum): 1 µg/mL
Dental Plaque Preventive Activity in 50% saliva Minimum Effective Conc. (%) [1]: Ca. 0.005%
Virucidal activity against Herpes simplex type 2 virus [2]: active
LD50 at 168 h [3]: > 1000 mg/kg
Mortality 7 Days [4, 5]: 0/3
Mortality 24 Hrs [4, 5]: 0/3
Mortality 7 Days ([4]; 250 mg/kg oral): 0/3
Mortality 24 Hrs ([4]; 250 mg/kg oral): 0/3
Mortality 7 Days ([4]; 500 mg/kg oral): 0/3
Mortality 24 Hrs ([4]; 500 mg/kg oral): 0/3
Mortality 7 Days ([4]; 1000 mg/kg oral): 0/3
Mortality 24 Hrs ([4]; 1000 mg/kg oral): 0/3

CCCCCCCCNc1cc[n+](CCCCCCCCC[n+]2ccc(NCCCCCCCC)cc2)cc1 [Example 44A, 1,9-bis-[4-(octylamino)-1-pyridinium]nonane dibromide]
MIC (S. Aureus Smith): 1 µg/mL
MIC (E. coli 100/B22): 1 µg/mL
MIC (E. coli AB1932-1): 1 µg/mL
MIC (E. coli Vogel): 1 µg/mL
MIC (K. pneum. 39645): 1.95 µg/mL
MIC (P. mirab. MGH-1): 15.6 µg/mL
MIC (Ps. aerug. MGH-2): 3.9 µg/mL
MIC (S. pyogen. C203): 0.5 µg/mL
MIC (A. niger 16404): 3.9 µg/mL
MIC (C. albicans 10231): 1 µg/mL
MIC (C. albicans Wisc.): 1.95 µg/mL
MIC (T. menta. 9129): 1 µg/mL
Dental Plaque Preventive Activity in 50% saliva Minimum Effective Conc. (%) [1]: 0.005%
LD50 at 168 h [3]: > 1000 mg/kg
Mortality 7 Days ([4]; 125 mg/kg oral): 0/3
Mortality 24 Hrs ([4]; 125 mg/kg oral): 0/3
Mortality 7 Days ([4]; 250 mg/kg oral): 0/3
Mortality 24 Hrs ([4]; 250 mg/kg oral): 0/3
Mortality 7 Days ([4]; 500 mg/kg oral): 0/3
Mortality 24 Hrs ([4]; 500 mg/kg oral): 0/3
Mortality 7 Days ([4]; 1000 mg/kg oral): 0/3
Mortality 24 Hrs ([4]; 1000 mg/kg oral): 0/3

CCCCC(CC)CNc1cc[n+](CCCCCCCC[n+]2ccc(NCC(CC)CCCC)cc2)cc1 (centres unmarked) [Example 56, 1,8-bis-[4-(2-ethylhexylamino)-1-pyridinium]octane dibromide]
MIC (S. Aureus Smith): 0.31 µg/mL
MIC (E. coli 100/B22): 1.95 µg/mL
MIC (E. coli AB1932-1): 0.98 µg/mL
MIC (E. coli Vogel): 3.9 µg/mL
MIC (K. pneum. 39645): 7.8 µg/mL
MIC (P. mirab. MGH-1): 125 µg/mL
MIC (Ps. aerug. MGH-2): 125 µg/mL
MIC (S. pyogen. C203): 0.16 µg/mL
MIC (A. niger 16404): 15.6 µg/mL
MIC (C. albicans 10231): 3.9 µg/mL
MIC (C. albicans Wisc.): 3.9 µg/mL
MIC (T. menta. 9129): 1.95 µg/mL
Dental Plaque Preventive Activity in 50% saliva Minimum Effective Conc. (%) [1]: 0.1%
Virucidal activity against Herpes simplex type 2 virus [2]: active
LD50 at 168 h [3]: > 1000 mg/kg
Mortality 7 Days ([4]; 125 mg/kg oral): 0/3
Mortality 24 Hrs ([4]; 125 mg/kg oral): 0/3
Mortality 7 Days ([4]; 250 mg/kg oral): 0/3
Mortality 24 Hrs ([4]; 250 mg/kg oral): 0/3
Mortality 7 Days ([4]; 500 mg/kg oral): 0/3
Mortality 24 Hrs ([4]; 500 mg/kg oral): 0/3
Mortality 7 Days ([4]; 1000 mg/kg oral): 1/3
Mortality 24 Hrs ([4]; 1000 mg/kg oral): 1/3
